Results published in ChEMBL document CHEMBL5465560, “Selectivity Literature for EUbOPEN Chemogenomic Library” (2024).

What was measured:
[1] = molecular target: T1, TGF-beta receptor type-1 (Homo sapiens) (UniProt P36897); test: Selectivity interaction (KinomeScan (DiscoverX)) EUB0000595a TGFBR1; conditions: at 10 µM
T1 sequence (whole entry): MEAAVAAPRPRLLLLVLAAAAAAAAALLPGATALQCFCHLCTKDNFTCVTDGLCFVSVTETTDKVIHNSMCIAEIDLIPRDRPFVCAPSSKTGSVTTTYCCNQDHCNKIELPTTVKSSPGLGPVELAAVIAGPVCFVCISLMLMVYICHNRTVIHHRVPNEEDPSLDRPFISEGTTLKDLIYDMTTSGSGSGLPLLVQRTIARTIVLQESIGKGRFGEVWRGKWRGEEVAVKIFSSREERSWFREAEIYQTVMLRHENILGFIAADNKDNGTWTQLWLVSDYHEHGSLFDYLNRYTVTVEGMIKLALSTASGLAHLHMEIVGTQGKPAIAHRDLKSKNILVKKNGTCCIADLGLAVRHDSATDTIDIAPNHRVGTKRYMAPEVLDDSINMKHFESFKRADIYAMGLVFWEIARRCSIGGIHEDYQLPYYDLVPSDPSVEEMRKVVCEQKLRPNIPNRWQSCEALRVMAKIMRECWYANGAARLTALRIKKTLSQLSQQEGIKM

[2] = molecular target: T2, Mitogen-activated protein kinase kinase kinase 12 (Homo sapiens) (UniProt Q12852); test: Selectivity interaction (KinomeScan (DiscoverX)) EUB0000045b MAP3K12
T2 sequence (whole entry): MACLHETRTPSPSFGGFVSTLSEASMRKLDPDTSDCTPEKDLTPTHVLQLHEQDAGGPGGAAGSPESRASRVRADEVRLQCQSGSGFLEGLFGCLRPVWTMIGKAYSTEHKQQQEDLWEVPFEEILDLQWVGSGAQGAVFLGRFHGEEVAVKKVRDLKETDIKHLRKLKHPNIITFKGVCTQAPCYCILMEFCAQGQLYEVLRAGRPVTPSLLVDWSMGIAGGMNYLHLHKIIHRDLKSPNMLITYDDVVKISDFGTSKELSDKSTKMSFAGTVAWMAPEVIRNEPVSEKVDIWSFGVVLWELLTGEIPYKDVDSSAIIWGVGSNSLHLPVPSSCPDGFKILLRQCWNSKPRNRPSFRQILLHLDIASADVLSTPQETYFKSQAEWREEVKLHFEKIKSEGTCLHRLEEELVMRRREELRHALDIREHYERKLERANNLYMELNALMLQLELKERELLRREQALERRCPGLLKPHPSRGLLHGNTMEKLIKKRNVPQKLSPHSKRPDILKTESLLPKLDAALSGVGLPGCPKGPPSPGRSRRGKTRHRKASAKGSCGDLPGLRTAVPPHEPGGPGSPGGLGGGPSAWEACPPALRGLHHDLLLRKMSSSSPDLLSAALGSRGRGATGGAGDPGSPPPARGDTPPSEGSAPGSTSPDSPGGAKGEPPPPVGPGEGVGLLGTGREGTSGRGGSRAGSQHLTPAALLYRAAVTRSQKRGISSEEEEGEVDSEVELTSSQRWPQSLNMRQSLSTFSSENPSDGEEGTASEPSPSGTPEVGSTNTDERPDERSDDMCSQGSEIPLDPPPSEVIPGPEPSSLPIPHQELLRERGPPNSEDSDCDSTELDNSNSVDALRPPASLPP

[3] = molecular target: Cyclin-dependent kinase 16 (Homo sapiens) (UniProt Q00536); test: Selectivity interaction (KinomeScan (DiscoverX)) EUB0001079a CDK16; conditions: at 1 µM
[4] = molecular target: Dual specificity mitogen-activated protein kinase kinase 2 (Homo sapiens) (UniProt P36507); test: Selectivity interaction (KinomeScan (DiscoverX)) EUB0001049a MAP2K2; conditions: at 1 µM
[5] = molecular target: Fibroblast growth factor receptor 3 (Homo sapiens, UniProt P22607); test: Selectivity interaction (Kinase panel (33PanQinase(R) Activity Assay)) EUB0000877a FGFR3
[6] = molecular target: Casein kinase I isoform delta (Homo sapiens, UniProt P48730); test: Selectivity interaction (KinomeScan (DiscoverX)) EUB0001619a CSNK1D; conditions: at 1 µM
[7] = molecular target: T3, Mitogen-activated protein kinase kinase kinase 13 (Homo sapiens) (UniProt O43283); test: Selectivity interaction (KinomeScan (DiscoverX)) EUB0000607a MAP3K13; conditions: at 10 µM
T3 sequence (whole entry): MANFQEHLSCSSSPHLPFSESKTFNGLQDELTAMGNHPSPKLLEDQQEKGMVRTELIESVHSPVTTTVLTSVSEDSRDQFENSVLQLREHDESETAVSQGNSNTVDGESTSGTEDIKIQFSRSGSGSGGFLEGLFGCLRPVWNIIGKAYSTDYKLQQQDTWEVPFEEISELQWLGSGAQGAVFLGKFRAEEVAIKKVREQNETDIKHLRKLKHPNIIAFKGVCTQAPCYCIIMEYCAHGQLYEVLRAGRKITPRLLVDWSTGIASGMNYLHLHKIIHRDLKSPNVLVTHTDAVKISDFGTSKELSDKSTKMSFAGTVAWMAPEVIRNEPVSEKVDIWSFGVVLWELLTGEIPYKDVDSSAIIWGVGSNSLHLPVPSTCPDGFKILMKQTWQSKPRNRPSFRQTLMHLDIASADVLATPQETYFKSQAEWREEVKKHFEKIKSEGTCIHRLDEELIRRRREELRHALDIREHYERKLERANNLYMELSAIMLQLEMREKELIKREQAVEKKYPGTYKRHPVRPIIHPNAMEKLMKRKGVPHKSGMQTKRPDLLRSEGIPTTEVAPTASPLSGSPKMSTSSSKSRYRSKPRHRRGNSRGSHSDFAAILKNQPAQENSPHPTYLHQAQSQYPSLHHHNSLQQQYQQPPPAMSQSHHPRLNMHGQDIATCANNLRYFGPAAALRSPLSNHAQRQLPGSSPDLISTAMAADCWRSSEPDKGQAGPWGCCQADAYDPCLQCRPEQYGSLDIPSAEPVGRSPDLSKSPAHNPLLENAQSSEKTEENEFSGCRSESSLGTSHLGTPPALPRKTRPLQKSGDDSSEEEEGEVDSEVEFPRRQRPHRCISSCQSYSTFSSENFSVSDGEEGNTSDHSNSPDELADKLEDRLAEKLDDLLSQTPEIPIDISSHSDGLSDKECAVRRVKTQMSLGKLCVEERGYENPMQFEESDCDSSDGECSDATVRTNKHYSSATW

Misshapen-like kinase 1 = Misshapen-like kinase 1 (Homo sapiens, UniProt Q8N4C8); test: Selectivity interaction (KinomeScan (DiscoverX)) EUB0000607a MINK1; conditions: at 10 µM
Misshapen-like kinase 1, sequence (Q8N4C8 whole entry, looked up): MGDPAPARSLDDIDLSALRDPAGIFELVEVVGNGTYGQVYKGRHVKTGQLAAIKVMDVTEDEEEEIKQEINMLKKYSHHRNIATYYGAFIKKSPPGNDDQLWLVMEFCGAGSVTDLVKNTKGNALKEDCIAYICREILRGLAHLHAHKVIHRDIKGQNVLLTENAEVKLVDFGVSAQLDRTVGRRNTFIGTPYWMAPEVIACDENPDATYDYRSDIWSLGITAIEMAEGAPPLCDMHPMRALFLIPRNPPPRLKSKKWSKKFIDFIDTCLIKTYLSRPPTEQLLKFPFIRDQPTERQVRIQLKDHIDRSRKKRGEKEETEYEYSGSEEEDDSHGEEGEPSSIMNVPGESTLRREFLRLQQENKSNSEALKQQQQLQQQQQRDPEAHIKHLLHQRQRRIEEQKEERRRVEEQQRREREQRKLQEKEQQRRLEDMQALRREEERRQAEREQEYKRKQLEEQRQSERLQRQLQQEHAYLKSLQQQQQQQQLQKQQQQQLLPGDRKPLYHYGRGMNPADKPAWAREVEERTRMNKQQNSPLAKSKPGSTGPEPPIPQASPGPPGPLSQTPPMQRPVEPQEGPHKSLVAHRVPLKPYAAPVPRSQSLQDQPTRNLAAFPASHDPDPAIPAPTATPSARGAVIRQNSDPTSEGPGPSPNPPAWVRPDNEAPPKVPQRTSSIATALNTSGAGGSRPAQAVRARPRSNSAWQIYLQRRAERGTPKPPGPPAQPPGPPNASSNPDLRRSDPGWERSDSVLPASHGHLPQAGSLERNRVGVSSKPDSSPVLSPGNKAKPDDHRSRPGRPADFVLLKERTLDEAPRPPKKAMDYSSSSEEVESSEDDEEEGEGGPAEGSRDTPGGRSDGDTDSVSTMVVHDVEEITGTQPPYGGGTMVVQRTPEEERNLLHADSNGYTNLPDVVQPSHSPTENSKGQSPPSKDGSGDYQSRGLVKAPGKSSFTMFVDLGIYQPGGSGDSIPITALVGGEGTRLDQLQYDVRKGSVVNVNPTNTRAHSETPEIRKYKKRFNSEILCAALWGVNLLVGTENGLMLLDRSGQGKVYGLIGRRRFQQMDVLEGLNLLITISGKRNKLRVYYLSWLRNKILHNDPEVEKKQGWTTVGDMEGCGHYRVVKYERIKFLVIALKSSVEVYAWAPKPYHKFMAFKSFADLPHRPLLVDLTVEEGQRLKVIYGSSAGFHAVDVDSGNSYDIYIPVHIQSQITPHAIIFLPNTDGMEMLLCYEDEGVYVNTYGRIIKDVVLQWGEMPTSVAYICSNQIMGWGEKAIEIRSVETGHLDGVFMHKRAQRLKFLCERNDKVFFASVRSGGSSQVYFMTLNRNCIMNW

Dual specificity mitogen-activated protein kinase kinase 2 (Homo sapiens), sequence (P36507 whole entry): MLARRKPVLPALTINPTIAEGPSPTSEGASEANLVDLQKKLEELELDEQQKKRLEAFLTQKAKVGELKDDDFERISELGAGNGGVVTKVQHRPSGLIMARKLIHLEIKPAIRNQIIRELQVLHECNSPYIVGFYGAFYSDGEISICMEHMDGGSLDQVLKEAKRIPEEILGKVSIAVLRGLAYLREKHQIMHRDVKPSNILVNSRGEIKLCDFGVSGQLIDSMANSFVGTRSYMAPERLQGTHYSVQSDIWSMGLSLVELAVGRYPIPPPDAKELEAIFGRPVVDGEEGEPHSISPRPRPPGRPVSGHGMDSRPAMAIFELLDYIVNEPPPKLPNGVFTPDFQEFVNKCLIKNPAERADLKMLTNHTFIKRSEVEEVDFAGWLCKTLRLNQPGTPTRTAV
Cyclin-dependent kinase 16 (Homo sapiens), sequence (Q00536 whole entry): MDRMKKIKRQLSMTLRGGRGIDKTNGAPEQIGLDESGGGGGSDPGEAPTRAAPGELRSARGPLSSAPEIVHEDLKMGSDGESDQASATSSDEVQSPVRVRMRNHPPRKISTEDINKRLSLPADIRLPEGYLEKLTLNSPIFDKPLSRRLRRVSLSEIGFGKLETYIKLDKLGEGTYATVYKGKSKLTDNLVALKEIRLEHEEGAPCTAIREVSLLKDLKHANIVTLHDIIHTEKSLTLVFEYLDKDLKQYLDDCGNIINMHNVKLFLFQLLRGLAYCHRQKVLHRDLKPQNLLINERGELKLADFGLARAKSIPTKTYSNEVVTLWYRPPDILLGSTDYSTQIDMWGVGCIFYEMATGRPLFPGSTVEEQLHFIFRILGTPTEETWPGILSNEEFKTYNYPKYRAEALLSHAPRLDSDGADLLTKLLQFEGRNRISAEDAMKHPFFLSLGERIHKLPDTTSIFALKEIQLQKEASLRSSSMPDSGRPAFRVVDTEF
Casein kinase I isoform delta, sequence (P48730 whole entry, looked up, canonical isoform): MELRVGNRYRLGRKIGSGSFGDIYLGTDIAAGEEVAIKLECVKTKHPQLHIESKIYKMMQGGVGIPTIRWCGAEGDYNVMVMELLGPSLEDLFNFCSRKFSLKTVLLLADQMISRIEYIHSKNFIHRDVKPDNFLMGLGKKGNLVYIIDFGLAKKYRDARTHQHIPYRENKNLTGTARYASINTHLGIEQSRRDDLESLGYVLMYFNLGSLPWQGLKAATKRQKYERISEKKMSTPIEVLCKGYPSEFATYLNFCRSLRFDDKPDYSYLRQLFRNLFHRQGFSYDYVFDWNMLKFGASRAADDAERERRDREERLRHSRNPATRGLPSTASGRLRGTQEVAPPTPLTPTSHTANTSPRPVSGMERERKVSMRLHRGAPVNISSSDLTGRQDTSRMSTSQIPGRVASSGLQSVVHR
Fibroblast growth factor receptor 3, sequence (P22607 whole entry, canonical isoform): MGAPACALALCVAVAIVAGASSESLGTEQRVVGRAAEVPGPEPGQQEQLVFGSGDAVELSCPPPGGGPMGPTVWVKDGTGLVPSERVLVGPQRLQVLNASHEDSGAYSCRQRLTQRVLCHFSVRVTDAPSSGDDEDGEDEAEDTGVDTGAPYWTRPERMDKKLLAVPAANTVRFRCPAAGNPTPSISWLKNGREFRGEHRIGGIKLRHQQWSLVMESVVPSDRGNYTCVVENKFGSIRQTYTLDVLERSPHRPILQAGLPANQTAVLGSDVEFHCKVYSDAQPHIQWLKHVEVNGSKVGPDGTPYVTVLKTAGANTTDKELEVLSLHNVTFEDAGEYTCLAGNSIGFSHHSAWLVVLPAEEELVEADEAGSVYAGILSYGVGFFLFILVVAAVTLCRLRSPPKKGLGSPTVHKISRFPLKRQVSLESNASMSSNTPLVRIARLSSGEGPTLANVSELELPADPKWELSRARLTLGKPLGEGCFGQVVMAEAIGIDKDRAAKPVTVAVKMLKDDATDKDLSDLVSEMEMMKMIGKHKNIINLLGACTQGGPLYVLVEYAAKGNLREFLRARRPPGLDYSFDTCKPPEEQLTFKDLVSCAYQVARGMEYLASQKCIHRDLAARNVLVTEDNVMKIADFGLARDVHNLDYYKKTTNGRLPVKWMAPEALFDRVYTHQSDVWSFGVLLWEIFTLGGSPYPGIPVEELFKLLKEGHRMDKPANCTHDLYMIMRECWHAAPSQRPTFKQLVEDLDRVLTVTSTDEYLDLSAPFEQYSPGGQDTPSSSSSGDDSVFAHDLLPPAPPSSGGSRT

With `COCC(=O)NC/C=C/c1ccc2ncnc(Nc3ccc(Oc4ccc(C)nc4)c(C)c3)c2c1` [CP-724714] as the molecule, how does the % of control [1] read?
Its % of control is 100%.

With `C=CC(=O)Nc1cc(-n2c(=O)ccc3cnc4ccc(-c5ccc(NS(C)(=O)=O)cc5)cc4c32)ccc1C` as the molecule, how does the % of control ([2]; at 1 µM) read?
The % of control was 70%.

What about the % of control ([2]; at 10 µM) of the same molecule?
The % of control was 59%.

Which % of control [3] does the source give for `Nc1cnc(N2CCc3cc(S(=O)(=O)Nc4c(F)cc(Cl)cc4F)cc(N4CCCC4=O)c32)nc1` [TP-020n] here?
Its % of control is 98%.

With `COc1cc(Nc2nc(C)cc(-c3cnn4nc(OC)ccc34)n2)cc(C(F)(F)F)c1` as the molecule, how does the % of control [4] read?
Its % of control is 77%.

Which IC50 [5] does the source give for `CCC(=O)N1CC[C@H](Nc2ncnc3c2CN(c2cnc(OC)c(C(F)(F)F)c2)CC3)C1` [LENIOLISIB] here?
Its IC50 is over 10 µM.

For `N#Cc1cccc(-c2c[nH]c3ncnc(N4CCOCC4)c23)c1`, which % of control [6] is on record?
Its % of control is 100%.

For `CNC(=O)Nc1ccc(-c2nc(N3CC4CCC(C3)O4)c3cnn(C4CCC5(CC4)OCCO5)c3n2)cc1`, which % of control [7] is on record?
Its % of control is 82%.

What about the % of control (Misshapen-like kinase 1) of the same molecule?
Its % of control is 100%.
